Results reported in patent US20250296971A1, “GASTRIC INHIBITORY PEPTIDE RECEPTOR LIGANDS” (priority 2021, published 2025).
Where two headings read alike, the source gives them in different places. Blank lines part the entries; values can stand above or below the compound they belong to. *1 amine or outer side, *2 acyl side, *3 side chain or, on linkers, in order; H or OH if unused. Where a SMILES comes first, the peptide text is derived from it. Bridges are numbered along the chain shown (N, C = ends). [ ]: non-standard residue; d: D form. The star is where a group is joined. X16 = NC(=O)[C@H](CCCCNC(=O)CN1CCN2CCN3CCN(CC1)CC(=O)[O][Lu]([O]C(=O)C2)[O]C(=O)C3)NC(=O)CCC(=O)NCCCOCCOCCOCCCN*; DOTA(Lu) = O=C1CN2CCN3CCN(CC(=O)*)CCN(CC2)CC(=O)[O][Lu]([O]1)[O]C(=O)C3; NH(1-deoxy-D-glucityl) = OC[C@@H](O)[C@@H](O)[C@H](O)[C@@H](O)CN*; Trp(5-Cl) = N[C@@H](Cc1c[nH]c2ccc(Cl)cc12)C(=O)O; Pyridine(2,6-diCH2) = c1cc(C[*:1])nc(C[*:2])c1; Pro(4R-NH2) = N[C@H]1CN[C@H](C(=O)O)C1; 1Nal = N[C@@H](Cc1cccc2ccccc12)C(=O)O; mXylylene = c1cc(C[*:1])cc(C[*:2])c1; N(CH2CH2COOH)Gly = O=C(O)CCNCC(=O)O; Glutaryl = O=C(CCCC(=O)[*:2])[*:1]; Hyp = O=C(O)[C@@H]1C[C@@H](O)CN1; X1 = O=C(CN1CCC(N[*:1])CC1)[*:2]; Thz = O=C(O)[C@@H]1CSCN1; Api = NC1(C(=O)O)CCNCC1; Thp = NC1(C(=O)O)CCOCC1; Aib = CC(C)(N)C(=O)O

Assays:
[1] = target: human Gastric Inhibitory Peptide Receptor (human) (UniProt P48546); experiment: FACS competition with GIP-057 on CHO-K1-hGIPR cells; pIC50 category A: >8.0
[2] = target: T1, GIPR (CHO-K1-hGIPR cells) (Homo sapiens, UniProt P48546); experiment: FACS binding assay
T1 construct: host or cells: CHO-K1
T1 sequence (P48546 22-466): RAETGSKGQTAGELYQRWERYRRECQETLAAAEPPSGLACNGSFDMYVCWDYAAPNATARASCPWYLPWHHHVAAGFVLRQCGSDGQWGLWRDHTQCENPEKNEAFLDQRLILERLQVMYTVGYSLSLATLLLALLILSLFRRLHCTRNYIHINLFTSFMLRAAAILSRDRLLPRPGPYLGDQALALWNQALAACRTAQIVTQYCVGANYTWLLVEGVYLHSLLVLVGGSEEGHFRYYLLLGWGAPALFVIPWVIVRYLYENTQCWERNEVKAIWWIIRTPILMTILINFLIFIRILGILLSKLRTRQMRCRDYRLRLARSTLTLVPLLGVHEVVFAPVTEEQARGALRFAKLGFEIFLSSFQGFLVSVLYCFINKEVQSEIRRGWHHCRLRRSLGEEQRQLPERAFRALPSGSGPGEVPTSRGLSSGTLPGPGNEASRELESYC
How it was run: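 CHO-K1 cells expressing human GIPR, washed in PBS/1% FCS, then stained with 1 μg/mL APC-streptavidin for 30 min on ice.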

[3] = competition with 20 nM GIP-057, 4° C., 1 hour, read-out: pIC50 Category (converted)

pIC50 [1]: > 8 pic50
Compound: Ac-Cya-Trp-5Clw-Hyp-Glu-leu-[Cys(2Lut)-Thp-Leu-Ile-Cys]-NH2 (peptide)

pIC50 [1]: > 8 pic50
Compound: DOTA-Asp-Trp-5Clw-Hyp-Glu-leu-[Cys(2Lut)-Thp-Leu-Ile-Cys]-NH2 (peptide)

Compound: CC[C@H](C)[C@@H]1NC(=O)[C@H](CC(C)C)NC(=O)C(C)(C)NC(=O)[C@@H](NC(=O)[C@@H](CC(C)C)NC(=O)[C@H](CCC(=O)O)NC(=O)[C@@H]2CCCN2C(=O)[C@H](Cc2cccc3ccccc23)NC(=O)[C@H](Cc2c[nH]c3ccccc23)NC(=O)[C@H](CC(=O)O)NC(C)=O)CSCc2cccc(c2)CSC[C@@H](C(=O)NCCCOCCOCCOCCCNC(=O)CCC(=O)N[C@@H](CCCCNC(=O)CN2CCN3CCN4CCN(CC2)CC(=O)[O][Lu]([O]C(=O)C3)[O]C(=O)C4)C(N)=O)NC1=O [GIP-172, Ac-Asp-Trp-1Ni-Pro-Glu-leu-[Cys(3MeBn)-Aib-Leu-Ile-Cys]-Ttds-Lys(LuDOTA)-NH2] (Ac-DW[1Nal]PE[dL]C[Aib]LIC-X16; linker 7-11 via mXylylene)
IC50 ([2]; pIC50 Category, competition with 20 nM GIP-057, 4° C., 1 hour): 10 to 79.4 nM

IC50 [2, 3]: < 10 nM
Compound: CC[C@H](C)[C@@H]1NC(=O)[C@H](CC(C)C)NC(=O)C2(CCOCC2)NC(=O)[C@@H](NC(=O)[C@@H](CC(C)C)NC(=O)[C@H](CCC(=O)O)NC(=O)[C@@H]2C[C@@H](O)CN2C(=O)[C@H](Cc2c[nH]c3ccc(Cl)cc23)NC(=O)[C@H](Cc2c[nH]c3ccccc23)NC(=O)[C@H](CC(=O)O)NC(=O)CCCC(=O)NC[C@H](O)[C@@H](O)[C@H](O)[C@H](O)CO)CSCc2cccc(n2)CSC[C@@H](C(N)=O)NC1=O [GIP-178, AGLU-Glutar-Asp-Trp-5Clw-Hyp-Glu-leu-[Cys(2Lut)-Thp-Leu-Ile-Cys]-NH2] ({NH(1-deoxy-D-glucityl)-Glutaryl}-DW[Trp(5-Cl)][Hyp]E[dL]C[Thp]LIC-NH2; linker 7-11 via Pyridine(2,6-diCH2))

IC50 [2, 3]: < 10 nM
Compound: CC[C@H](C)[C@@H]1NC(=O)[C@H](CC(C)C)NC(=O)[C@H](CCC(=O)O)NC(=O)[C@@H](NC(=O)[C@@H](CC(C)C)NC(=O)[C@H](CCC(=O)O)NC(=O)[C@@H]2C[C@@H](O)CN2C(=O)[C@H](Cc2c[nH]c3ccc(Cl)cc23)NC(=O)[C@H](Cc2c[nH]c3ccccc23)NC(=O)[C@H](CC(=O)O)NC(C)=O)CSCc2cccc(n2)CSC[C@@H](C(N)=O)NC1=O [GIP-235, Ac-Asp-Trp-5Clw-Hyp-Glu-leu-[Cys(2Lut)-Glu-Leu-Ile-Cys]-NH2] (Ac-DW[Trp(5-Cl)][Hyp]E[dL]CELIC-NH2; linker 7-11 via Pyridine(2,6-diCH2))

IC50 ([2]; competition with 20 nM GIP-057, 4° C. for 1 hour, read-out: pIC50 Category (converted)): 100 to 794 nM
Compound: CC[C@H](C)[C@@H]1NC(=O)[C@H](CC(C)C)NC(=O)[C@H](C)NC(=O)[C@@H](NC(=O)[C@H](CC(C)C)NC(=O)[C@H](CCC(=O)O)NC(=O)[C@@H]2CCCN2C(=O)[C@H](Cc2c[nH]c3ccccc23)NC(=O)[C@H](Cc2c[nH]c3ccccc23)NC(=O)[C@@H](CC(=O)O)NC(=O)[C@H](Cc2ccc(O)cc2)NC(=O)[C@@H](N)CCSC)CSCc2cccc(c2)CSC[C@@H](C(N)=O)NC1=O [GIP-307, H-Met-Tyr-asp-Trp-Trp-Pro-Glu-Leu-[Cys(3MeBn)-Ala-Leu-Ile-Cys]-NH2] (H-MY[dD]WWPELCALIC-NH2; linker 9-13 via mXylylene)

IC50 [2, 3]: < 10 nM
Compound: CC[C@H](C)[C@@H]1NC(=O)[C@H](CC(C)C)NC(=O)C2(CCOCC2)NC(=O)[C@@H](NC(=O)[C@@H](CC(C)C)NC(=O)[C@H](CCC(=O)O)NC(=O)[C@@H]2CSCN2C(=O)[C@H](Cc2c[nH]c3ccc(Cl)cc23)NC(=O)[C@H](Cc2c[nH]c3ccccc23)NC(=O)[C@H](CC(=O)O)NC(C)=O)CSCc2cccc(n2)CSC[C@@H](C(N)=O)NC1=O [GIP-222, Ac-Asp-Trp-5Clw-Eaz-Glu-leu-[Cys(2Lut)-Thp-Leu-Ile-Cys]-NH2] (Ac-DW[Trp(5-Cl)][Thz]E[dL]C[Thp]LIC-NH2; linker 7-11 via Pyridine(2,6-diCH2))

IC50 [2, 3]: < 10 nM
Compound: CC[C@H](C)[C@@H]1NC(=O)[C@H](CC(C)C)NC(=O)C2(CCOCC2)NC(=O)[C@@H](NC(=O)[C@@H](CC(C)C)NC(=O)[C@H](CCC(=O)O)NC(=O)CN(CCC(=O)O)C(=O)[C@H](Cc2c[nH]c3ccc(Cl)cc23)NC(=O)[C@H](Cc2c[nH]c3ccccc23)NC(=O)[C@H](CC(=O)O)NC(C)=O)CSCc2cccc(n2)CSC[C@@H](C(N)=O)NC1=O [GIP-196, Ac-Asp-Trp-5Clw-Nglu-Glu-leu-[Cys(2Lut)-Thp-Leu-Ile-Cys]-NH2] (Ac-DW[Trp(5-Cl)][N(CH2CH2COOH)Gly]E[dL]C[Thp]LIC-NH2; linker 7-11 via Pyridine(2,6-diCH2))

Compound: CC[C@H](C)[C@@H]1NC(=O)[C@H](CC(C)C)NC(=O)C2(CCN(C(=O)CN3CCN4CCN5CCN(CC3)CC(=O)[O][Lu]([O]C(=O)C5)[O]C(=O)C4)CC2)NC(=O)[C@@H](NC(=O)[C@@H](CC(C)C)NC(=O)[C@H](CCC(=O)O)NC(=O)[C@@H]2C[C@@H](N)CN2C(=O)[C@H](Cc2c[nH]c3ccc(Cl)cc23)NC(=O)[C@H](Cc2c[nH]c3ccccc23)NC(=O)[C@H](CC(=O)O)NC(=O)CCCC(=O)NC[C@H](O)[C@@H](O)[C@H](O)[C@H](O)CO)CSCc2cccc(n2)CSC[C@@H](C(=O)NC2CCN(CC(=O)N[C@H](CCC(=O)NC[C@H](O)[C@@H](O)[C@H](O)[C@H](O)CO)C(N)=O)CC2)NC1=O [GIP-067, AGLU-Glutar-Asp-Trp-5Clw-Tap-Glu-leu-[Cys(2Lut)-Apc(LuDOTA)-Leu-Ile-Cys]-APAc-glu(AGLU)-NH2] ({NH(1-deoxy-D-glucityl)-Glutaryl}-DW[Trp(5-Cl)][Pro(4R-NH2)]E[dL]C[Api](DOTA(Lu))LIC[X1][dE](NH(1-deoxy-D-glucityl))-NH2; linker 7-11 via Pyridine(2,6-diCH2))
pIC50 Category ([2]; competition with 20 nM GIP-057, 4° C., 1 hour): A (pIC50 values>8.0)
